Results taken from patent US20220033448A1, “METHODS FOR AGGREGATION OF PROTEINS” (priority 2011, published 2022).
No end group written: not given here.

Legend:
E. faecalis = E. faecalis ATCC 19433; planktonic; 18 hours
Method: (§1) Bacteria were grown in a shaking incubator at 37° C. and 160rpm in 50 ml BHI , using individual colonies retrieved from a fresh overnight TSA-sheep blood plate. The cultures were grown to a density of approximately 1×10^8cells/ml and then diluted to 5×10^5 cells/ml in CAMHB (Mc Farland 0.5). Each well contained 100p.I (50p.I of peptide containing MHB plus 50 μl inoculum). The final cell density was 1×10^5 to 5×10^5/ml. After addition of the cell suspension, plates were incubated at 37° C. for 18 to 24 hours. The optical density at 590 nm (OD590) of each well was measured after 5 seconds of shaking the plate using Perkin Elmer spectrophotometer (1420 Multilabel Counter Vicotr 3). […] Each well, where no growth was observed, was also plated on TSA-sheep blood agar plates, incubated at 37° C. overnight and visually inspected.
(§2) A microbroth dilution method was used with twofold serial dilutions in CAMHB (according to EMEA guidelines) was used for screening of peptide activity, with concentrations ranging from 0.3 μg/mIto 200 μg/ml.

E. coli = E. coli ATCC25922; planktonic bacteria; read-out after 18 hours of growth
Method: as §1, §2

S. hominis = settings: S. hominis; planktonic; 18 hours
Method: as §1, §2

Nocardia asteroides = Nocardia asteroides ATCC 3308; planktonic; 18 hours
Method: as §1, §2

[1] = Preliminary in vivo toxicity in rats; settings: 1.5 mg/kg and 3 mg/kg, single injection into a tail vein, observed over several days
Method: In order to assess the toxicity of the antibacterial peptide interferors in vivo, eight germ-free fisher male and female rats, weighing approximately ±350 grams were injected with peptide interferor C30 in buffer A: histidine-acetate(pH 6.5) and buffer B phosphate buffer (pH 6.5). Two rats were injected with a concentration of 1.5 mg/kg and two with a concentration of 3 mg/kg. These were single non repeatable injections into a tail vein.

VRE strains = assay: MIC, microbroth dilution; settings: planktonic, 18 hours
Method: as §1

S. aureus MRSA 326 = assay: Neutropenic-mouse thigh model; settings: neutropenic mice; bolus i.v. dose of 15 mg/kg 2 h after inoculation; sacrificed 4 hours post-infection
Candida albicans SC5314 [2] = assay: In vivo subcutaneous C. albicans biofilm model in rats (polyurethane catheters, CFU)
Method: In a next step we also investigated a potential inhibitory role of interferor peptide F9 during in vivo C. albicans biofilm development. We used the in vivo subcutaneous C. albicans biofilm model in rats (i.e. in vivo biofilms formed inside polyurethane triple lumen catheter pieces) as further outlined in the materials and methods section. Only one concentration of peptide F9 (i.e. 50 μM) was tested in the experimental conditions. The peptide was administrated ex vivo, during initial attachment of Candida to the substrate (90 min, 37° C.). Afterwards, the catheters were washed and implanted subcutaneously in rats. Biofilms were studied six days post implantation and quantified by CFUs. […]
Polyurethane triple lumen intravenous catheters (2.4 mm diameter) cut into segments of 1 cm (Arrow International Reading, USA) were incubated overnight in FBS at 37° C. […] The skin was disinfected and catheter fragments were removed from under the subcutaneous tissue, washed twice with 1× PBS and quantified or visualized.The effect of peptides promoting the aggregation of Als3p during Candida biofilm development in vivo was characterized, as well. […]
The amount of fungal biofilm biomass formed inside the catheter lumen of in vitro and in vivo explanted catheters was determined by colony forming units (CFU). […] CFUs were counted after two days at 37° C.

Candida albicans SC5314 [3] = assay: Adherence of C. albicans SC5314 to epithelial cell line TR-146; assay type: cell-based; settings: adhesion 1 h
Method: As discussed herein before, C. albicans Als3 also plays a role in adherence and invasion to epithelial and endothelial cells. […] Here we investigated the effect of external application of interferor peptide F9 on C. albicans SC5314 adherence and invasion to epithelial cells. Thereto, Candida cells were incubated together with the human cells (epithelial cell line TR-146) in the presence of peptide F9 during adhesion (1 h) or invasion (3 h). The amount of adhered and internalized cells was determined by counting using epifluorescence.
C. albicans strains were grown in liquid YPD, succinate, pH 6.5 or YNB (4% D-glucose) at 30° C. in a shaking incubator overnight. Candida cells were washed three times with 1× PBS and determined to a final concentration 1×10^5 cells/ml in DMEM containing NaHCO3, D-glucose, Na-pyruvate and stable glutamine without FCS. The TR-146 were grown on 12 mm glass slides and inoculated with Candida cells. Different concentrations of positive peptide F9 (50 μM, 10 μM and 2.5 μM) and negative peptides F9_negat, 13 and 20 (50 μM) were tested on Candida adhesion to epithelial cells. Adhesion assay was allowed for 1 h at 37° C., 5% CO2. After adhesion, the cells were washed three times with 1× PBS to remove non-adherent cells and then fixed with 4% paraformaldehyde for 30 min at room temperature.
After extensive rinsing with 1× PBS, the cells were permeabilized in 0.5% Triton X-100 in water for 5 min, and subsequently stained with calcofluor white (dilution 1:100) for 15 min and further washed with water, three times for 10 min, at 30° C., 180 rpm. Coverslips were mounted inverted on a microscope slide and quantified under epifluorescence using a filter set to detect calcofluor white (filter for DAPI) (Leica DFC350 FX, Mannheim, Germany). The percentage of adhered cells was calculated as an average of attached Candida cells on one hundred areas spread over the entire surface of the coverslip.

For RILLGLIRRGSRILLGLIRR [C30], which MIC (E. faecalis) is on record?
Its MIC is “E. faecalis ATCC 19433: 6 μg/ml”.

What about the MIC (E. coli) of the same sequence?
The MIC was “E. coli ATCC25922: 100 μg/ml”.

And the MIC (S. hominis)?
The MIC was “S. hominis: 3 μg/ml”.

And the MIC (Nocardia asteroides)?
Its MIC is “Nocardia asteroides ATCC 3308: 1.5 μg/ml”.

What about the “mortality and side effects” value [1] of the same sequence?
The value was “no mortality nor any other side effects were apparently visible”.

What about the MIC (VRE strains; VRE 8) of the same sequence?
The MIC was “VRE 8: 3 μg/ml”.

What about the MIC (VRE strains; VRE 11) of the same sequence?
Its MIC is “VRE 11: 1.5 μg/ml”.

What about the MIC (VRE strains; VRE 12) of the same sequence?
Its MIC is “VRE 12: 12.5 μg/ml”.

And the MIC (VRE strains; VRE 40)?
The MIC was “VRE 40: 3 μg/ml”.

And the MIC (VRE strains; VRE 54)?
Its MIC is “VRE 54: 3 μg/ml”.

And the MIC (VRE strains; VRE 60)?
The MIC was “VRE 60: 3 μg/ml”.

And the MIC (VRE strains; VRE 70)?
The MIC was “VRE 70: 1.5 μg/ml”.

What about the “reduction of expansion of initial inoculum” value (S. aureus MRSA 326) of the same sequence?
Its value is 6.9 Log10 CFU/ml.

With RKLLFNLGSRNGIVIVATTR [F9] as the sequence, how does the “mean CFUs ±SD obtained per catheter fragment” value (Candida albicans SC5314 [2]; 50 μM ex vivo during adhesion (90 min, 37° C.), catheters implanted subcutaneously in rats, six days post implantation, control 3.69 ±0.42) read?
Its value is 2.25 ±1.08 login CFU/catheter fragment.

And the “peptide-treated catheters containing less than 2.0 log10 CFU/catheter fragment” value (Candida albicans SC5314 [2]; four out of 20 catheters, 50 μM, rats, six days)?
Its value is 20%.

And the “decrease of Candida adhesion to epithelial cells compared to the control” value (“decrease of Candida adhesion” below) (Candida albicans SC5314 [3]; 2.5 μM)?
The value was about 15%.

What about the “decrease of Candida adhesion” value (Candida albicans SC5314 [3]; 10 μM) of the same sequence?
The value was “approximately 20%”.

And the “decrease of Candida adhesion” value (Candida albicans SC5314 [3]; 50 μM)?
Its value is 40%.
